Reference: patent publication US11000033B2, “Ketone or oxime compound, and herbicide” (NISSAN CHEMICAL CORPORATION, priority 2014, dated 2021)

Assays:
[1] = test system: Echinochloa crus-galli var. crus-galli; assay: Test Example 3: herbicidal effect by foliage application, Wagner pot (symbol H); format: in vivo; conditions: application herbicide amount 320 g/ha
Outline: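 Seeds sown in alluvial soil kept under 0.1–0.5 cm water, greenhouse 25–30 °C; 14 d growth. Leaves treated by small sprayer with water-diluted emulsion at a predetermined rate. Effect graded by set scale, 3 weeks.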

Apera spica-venti = assay: Test Example 5: herbicidal effect by foliage application, plastic box (symbol L); format: in vivo; conditions: 320 g/ha, 3 weeks after application
Outline: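 Visual herbicidal score, taken three weeks post-application, of seedlings sprayed on the foliage with water-diluted emulsion at a predetermined amount; plants were 14 days old, greenhouse-raised at 25° C. to 30° C.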

corn = assay: Test Example 5: effect on crop by foliage application, plastic box (symbol c); format: in vivo; conditions: 320 g/ha, 3 weeks after application
Outline: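 A greenhouse held between 25° C. and 30° C. was used to grow plants sown spot-wise, beneath ~1.5 cm of soil, in boxes of sterilized diluvial soil.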

Digitaria ciliaris = assay: Test Example 4: herbicidal effect by soil treatment (symbol F); format: in vivo; conditions: application herbicide amount 320 g/ha
Outline: (§1)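 Seeds were sown in sterilized diluvial soil, covered with about 1.5 cm of soil, and the soil surface was sprayed with a water-diluted emulsion of the compound at a predetermined rate. Plants grew in a greenhouse at 25° C. to 30° C.; effects were scored visually 3 weeks after application.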

Chenopodium album = assay: Test Example 4: herbicidal effect by soil treatment (symbol O); format: in vivo; conditions: application herbicide amount 320 g/ha
Outline: as §1

Galium spurium = assay: Test Example 4: herbicidal effect by soil treatment (symbol Q); format: in vivo; conditions: application herbicide amount 320 g/ha
Outline: as §1

Compound | melting point [°C] | herbicidal effect on H (Echinochloa crus-galli var. crus-galli), grade 0-5 [1] | L: Apera spica-venti, herbicidal effect grade (Apera spica-venti) | c: corn, effect on crop grade (corn) | F (Digitaria ciliaris) herbicidal effect grade (Digitaria ciliaris) | O (Chenopodium album) herbicidal effect grade (Chenopodium album) | Q (Galium spurium) herbicidal effect grade (Galium spurium) | H (Echinochloa crus-galli var. crus-galli) herbicidal effect grade ([1]; Table 24) | Herbicidal effect grade, F: Digitaria ciliaris (Digitaria ciliaris) | Herbicidal effect grade, O: Chenopodium album (Chenopodium album) | Herbicidal effect grade, Q: Galium spurium (Galium spurium)
CCON=C(C)CC1CC(O)=C(c2c(C)cc(C)cc2C)C1=O (stereo not shown) [1-003] | 135 to 140 | 5 (Herbicidal ratio of 90% or more (almost completely withered)) | 5 (Herbicidal ratio of 90% or more (almost completely withered)) | 5 (Herbicidal ratio of 90% or more (almost completely withered)) | 5 (Herbicidal ratio of 90% or more (almost completely withered)) | – | 0 (Herbicidal ratio of 5% or lower (almost no effect)) | – | – | – | –
CON=C(C)CC1CC(OC)=C(c2c(C)cc(C)cc2C)C1=O (stereo not shown) [1-001, 2-mesityl-3-methoxy-5-{2-(methoxyimino)propyl}cyclopent-2-enone] | 92 to 98 | 0 (Herbicidal ratio of 5% or lower (almost no effect)) | 0 (Herbicidal ratio of 5% or lower (almost no effect)) | 0 (Herbicidal ratio of 5% or lower (almost no effect)) | 0 (Herbicidal ratio of 5% or lower (almost no effect)) | 0 (Herbicidal ratio of 5% or lower (almost no effect)) | 0 (Herbicidal ratio of 5% or lower (almost no effect)) | – | – | – | –
CON=C(C)CC1CC(O)=C(c2c(C)cc(C)cc2C)C1=O (stereo not shown) [1-002, 3-hydroxy-2-mesityl-5-{2-(methoxyimino)propyl}cyclopent-2-enone] | 170 to 173 | 5 (Herbicidal ratio of 90% or more (almost completely withered)) | 5 (Herbicidal ratio of 90% or more (almost completely withered)) | 5 (Herbicidal ratio of 90% or more (almost completely withered)) | 5 (Herbicidal ratio of 90% or more (almost completely withered)) | 5 (Herbicidal ratio of 90% or more (almost completely withered)) | 1 (Herbicidal ratio of 5% or higher and lower than 20%) | – | – | – | –
CC(CC1CC(O)=C(c2c(C)cc(C)cc2C)C1=O)=NOC(C)C (stereo not shown) [1-052] | 93 to 95 | 5 (Herbicidal ratio of 90% or more (almost completely withered)) | 5 (Herbicidal ratio of 90% or more (almost completely withered)) | 4 (Herbicidal ratio of 70% or higher and lower than 90%) | 5 (Herbicidal ratio of 90% or more (almost completely withered)) | 0 (Herbicidal ratio of 5% or lower (almost no effect)) | – | – | – | – | –
CON=CCC1CC(O)=C(c2c(C)cc(C)cc2C)C1=O (stereo not shown) [1-050] | 96 to 108 | 5 (Herbicidal ratio of 90% or more (almost completely withered)) | 3 (Herbicidal ratio of 40% or higher and lower than 70%) | 0 (Herbicidal ratio of 5% or lower (almost no effect)) | 5 (Herbicidal ratio of 90% or more (almost completely withered)) | 0 (Herbicidal ratio of 5% or lower (almost no effect)) | – | – | – | – | –
CC(CC1CC(O)=C(c2c(C)cc(C)cc2C)C1=O)=NOCC(F)(F)F (stereo not shown) [1-028] | 172 to 174 | 5 (Herbicidal ratio of 90% or more (almost completely withered)) | 5 (Herbicidal ratio of 90% or more (almost completely withered)) | 4 (Herbicidal ratio of 70% or higher and lower than 90%) | 5 (Herbicidal ratio of 90% or more (almost completely withered)) | – | – | – | – | – | –
CON=C(C)CC1CC(OC(=O)C(C)(C)Oc2ccc(Cl)cc2)=C(c2c(C)cc(C)cc2C)C1=O (stereo not shown) [1-051] | – | 5 (Herbicidal ratio of 90% or more (almost completely withered)) | 5 (Herbicidal ratio of 90% or more (almost completely withered)) | 5 (Herbicidal ratio of 90% or more (almost completely withered)) | 5 (Herbicidal ratio of 90% or more (almost completely withered)) | 0 (Herbicidal ratio of 5% or lower (almost no effect)) | 0 (Herbicidal ratio of 5% or lower (almost no effect)) | – | – | – | –
CON=C(CC1CC(O)=C(c2c(C)cc(C)cc2C)C1=O)C(C)C (stereo not shown) [1-048] | – | 5 (Herbicidal ratio of 90% or more (almost completely withered)) | 5 (Herbicidal ratio of 90% or more (almost completely withered)) | 4 (Herbicidal ratio of 70% or higher and lower than 90%) | 5 (Herbicidal ratio of 90% or more (almost completely withered)) | 0 (Herbicidal ratio of 5% or lower (almost no effect)) | 0 (Herbicidal ratio of 5% or lower (almost no effect)) | – | – | – | –
CON=C(CC1CC(O)=C(c2c(C)cc(-n3cc(Cl)cn3)cc2C)C1=O)C(C)C (stereo not shown) [9-004] | – | – | 4 (Herbicidal ratio of 70% or higher and lower than 90%) | 5 (Herbicidal ratio of 90% or more (almost completely withered)) | – | – | – | 5 (Herbicidal ratio of 90% or more (almost completely withered)) | 5 (Herbicidal ratio of 90% or more (almost completely withered)) | 0 (Herbicidal ratio of 5% or lower (almost no effect)) | 0 (Herbicidal ratio of 5% or lower (almost no effect))

The next lines start with results.

melting point [°C] | Compound | herbicidal effect on H (Echinochloa crus-galli var. crus-galli), grade 0-5 [1] | L: Apera spica-venti, herbicidal effect grade (Apera spica-venti) | c: corn, effect on crop grade (corn) | F (Digitaria ciliaris) herbicidal effect grade (Digitaria ciliaris) | O (Chenopodium album) herbicidal effect grade (Chenopodium album) | Q (Galium spurium) herbicidal effect grade (Galium spurium) | H (Echinochloa crus-galli var. crus-galli) herbicidal effect grade ([1]; Table 24) | Herbicidal effect grade, F: Digitaria ciliaris (Digitaria ciliaris) | Herbicidal effect grade, O: Chenopodium album (Chenopodium album) | Herbicidal effect grade, Q: Galium spurium (Galium spurium)
154 to 156 | CCC(C)C(CC1CC(O)=C(c2c(C)cc(C)cc2C)C1=O)=NOC (stereo not shown) [1-066] | 5 (Herbicidal ratio of 90% or more (almost completely withered)) | 4 (Herbicidal ratio of 70% or higher and lower than 90%) | 4 (Herbicidal ratio of 70% or higher and lower than 90%) | 4 (Herbicidal ratio of 70% or higher and lower than 90%) | 0 (Herbicidal ratio of 5% or lower (almost no effect)) | 0 (Herbicidal ratio of 5% or lower (almost no effect)) | – | – | – | –
134 to 137 | CCCC(CC1CC(O)=C(c2c(C)cc(C)cc2C)C1=O)=NOC (stereo not shown) [1-062] | 4 (Herbicidal ratio of 70% or higher and lower than 90%) | 5 (Herbicidal ratio of 90% or more (almost completely withered)) | 4 (Herbicidal ratio of 70% or higher and lower than 90%) | 5 (Herbicidal ratio of 90% or more (almost completely withered)) | 0 (Herbicidal ratio of 5% or lower (almost no effect)) | 0 (Herbicidal ratio of 5% or lower (almost no effect)) | – | – | – | –
149 to 151 | CC(CC1CC(O)=C(c2c(C)cc(C)cc2C)C1=O)=NOc1ccccc1 (stereo not shown) [1-057] | 4 (Herbicidal ratio of 70% or higher and lower than 90%) | 1 (Herbicidal ratio of 5% or higher and lower than 20%) | 0 (Herbicidal ratio of 5% or lower (almost no effect)) | 4 (Herbicidal ratio of 70% or higher and lower than 90%) | – | – | – | – | – | –
95 to 98 | CC(CC1CC(O)=C(c2c(C)cc(C)cc2C)C1=O)=NO (stereo not shown) [1-058] | 5 (Herbicidal ratio of 90% or more (almost completely withered)) | 5 (Herbicidal ratio of 90% or more (almost completely withered)) | 4 (Herbicidal ratio of 70% or higher and lower than 90%) | 5 (Herbicidal ratio of 90% or more (almost completely withered)) | 0 (Herbicidal ratio of 5% or lower (almost no effect)) | – | – | – | – | –
163 to 164 | CON=C(CC1CC(O)=C(c2c(C)cc(C)cc2C)C1=O)C(C)(C)C (stereo not shown) [1-059] | 4 (Herbicidal ratio of 70% or higher and lower than 90%) | 4 (Herbicidal ratio of 70% or higher and lower than 90%) | 4 (Herbicidal ratio of 70% or higher and lower than 90%) | 4 (Herbicidal ratio of 70% or higher and lower than 90%) | – | – | – | – | – | –
145 to 147 | CC(CC1CC(O)=C(c2c(C)cc(C)cc2C)C1=O)=NOC(C)(C)C (stereo not shown) [1-053] | 5 (Herbicidal ratio of 90% or more (almost completely withered)) | 3 (Herbicidal ratio of 40% or higher and lower than 70%) | 3 (Herbicidal ratio of 40% or higher and lower than 70%) | 5 (Herbicidal ratio of 90% or more (almost completely withered)) | 0 (Herbicidal ratio of 5% or lower (almost no effect)) | – | – | – | – | –
